Experiment: Stability in solution / on storage
Conditions: in solution / ambient conditions

## C1=Cc2cc3ccc([nH]3)c3ccc(cc4ccc(cc1n2)[nH]4)[nH]3 [H3(cor)]
  stability: stability was limited due to ambient humidity and light conditions

— patent US20240083920A1, “LOW MOLECULAR WEIGHT CORROLE COMPOSITIONS” (TECHNION RESEARCH & DEVELOPMENT FOUNDATION LTD, priority 2021, published 2024)
